Measurements published in ChEMBL document CHEMBL1138490, “Gamma-aminobutyric acid amides of nortriptyline and fluoxetine display improved pain suppressing activity” (2009).
The source made the active and inactive calls.

Tests used:
[1] = test system: Mus musculus; experiment: Antiinflammatory activity against formalin-induced BALB/c mouse skin assessed as reduction in TNFalpha level at to 0.5 mg/kg, po; type: functional, organism-based; set-up: dose 0.5 mg/kg
[2] = test system: Mus musculus; experiment: Antiinflammatory activity against formalin-induced BALB/c mouse skin assessed as reduction in TNFalpha level at 50 mg/kg, ip; type: functional, organism-based; set-up: dose 50 mg/kg
[3] = test system: Rattus norvegicus; experiment: Antiinflammatory activity against gamma carrageenan-induced paw edema in Wistar rat assessed as reduction in paw volume at 50 mg/kg, ip administered 2 hrs before carrageenan challenge measured after 4 hrs relative to control; type: functional, organism-based; set-up: dose 50 mg/kg
[4] = test system: Rattus norvegicus; experiment: Antiinflammatory activity against gamma carrageenan-induced paw edema in Wistar rat assessed as reduction in paw volume at 50 mg/kg, ip administered 2 hrs before carrageenan challenge measured after 24 hrs relative to control; type: functional, organism-based; set-up: dose 50 mg/kg
[5] = test system: Rattus norvegicus; experiment: Antiinflammatory activity against gamma carrageenan-induced paw edema in Wistar rat assessed as paw volume at 50 mg/kg, ip administered 2 to 4 hrs before carrageenan challenge relative to control; type: functional, organism-based; set-up: dose 50 mg/kg
[6] = test system: Mus musculus; experiment: Anxiolytic activity in BALB/c mouse assessed as velocity at equimolar oral dose relative to 1 mg/kg nortriptyline after 90 mins by open-field test (RVb= 7.07+/-0.51 cm/s); type: functional
[7] = test system: Mus musculus; experiment: Antinociceptive activity in BALB/c mouse assessed as increase in paw withdrawal latency time at 0.2 mg/kg, po equimolar dose of nortriptyline daily measured after 3 to 5 hrs on day 10 to 12; type: functional, organism-based; set-up: dose 0.2 mg/kg
[8] = test system: Mus musculus; experiment: Antinociceptive activity in BALB/c mouse assessed as decrease in inhibition of paw withdrawal latency at 0.1 mg/kg, po after by hot plate method; type: functional, organism-based; set-up: dose 0.1 mg/kg
[9] = test system: Mus musculus; experiment: Antinociceptive activity in BALB/c mouse assessed as decrease in inhibition of paw withdrawal latency at 2.39 mg/kg, po after by hot plate method; type: functional, organism-based; set-up: dose 2.39 mg/kg
[10] = test system: Mus musculus; experiment: Antinociceptive activity against formalin-induced pain in BALB/c mouse assessed paw licking, biting or shaking at 0.5 mg/kg, po administered 2 hrs before formalin challenge measured after 0 to 5 mins relative to control; type: functional, organism-based; set-up: dose 0.5 mg/kg
[11] = test system: Mus musculus; experiment: Antinociceptive activity against formalin-induced pain in BALB/c mouse assessed paw licking, biting or shaking at 0.5 mg/kg, po administered 2 hrs before formalin challenge measured after 25 to 35 mins relative to control; type: functional, organism-based; set-up: dose 0.5 mg/kg
[12] = test system: Mus musculus; experiment: Antinociceptive activity against formalin-induced pain in BALB/c mouse assessed paw licking, biting or shaking at 5 mg/kg, po administered 2 hrs before formalin challenge measured after 0 to 5 mins relative to control; type: functional, organism-based; set-up: dose 5 mg/kg
[13] = test system: Mus musculus; experiment: Antinociceptive activity against formalin-induced pain in BALB/c mouse assessed paw licking, biting or shaking at 5 mg/kg, po administered 2 hrs before formalin challenge measured after 25 to 35 mins relative to control; type: functional, organism-based; set-up: dose 5 mg/kg
[14] = test system: Mus musculus; experiment: Antinociceptive activity against formalin-induced pain in BALB/c mouse assessed paw licking, biting or shaking at 0.5 mg/kg, po equimolar dose of nortriptyline administered 2 hrs before formalin challenge measured after 0 to 5 mins relative to control; type: functional, organism-based; set-up: dose 0.5 mg/kg
[15] = test system: Mus musculus; experiment: Antinociceptive activity against formalin-induced pain in BALB/c mouse assessed paw licking, biting or shaking at 0.5 mg/kg, po equimolar dose of nortriptyline administered 2 hrs before formalin challenge measured after 25 to 35 mins relative to control; type: functional, organism-based; set-up: dose 0.5 mg/kg
[16] = test system: Mus musculus; experiment: Antinociceptive activity against formalin-induced pain in BALB/c mouse assessed paw licking, biting or shaking at 5 mg/kg, po equimolar dose of nortriptyline administered 2 hrs before formalin challenge measured after 0 to 5 mins relative to control; type: functional, organism-based; set-up: dose 5 mg/kg
[17] = test system: Mus musculus; experiment: Antinociceptive activity against formalin-induced pain in BALB/c mouse assessed paw licking, biting or shaking at 5 mg/kg, po equimolar dose of nortriptyline administered 2 hrs before formalin challenge measured after 25 to 35 mins relative to control; type: functional, organism-based; set-up: dose 5 mg/kg
[18] = test system: Mus musculus; experiment: Anxiolytic activity in BALB/c mouse assessed as immobility at equimolar oral dose relative to 1 mg/kg nortriptyline after 90 mins by open-field test (RVb= 458.4+/-41 s); type: functional
[19] = test system: Mus musculus; experiment: Anxiolytic activity in BALB/c mouse assessed as immobility at equimolar oral dose relative to 5 mg/kg nortriptyline after 90 mins by open-field test (RVb= 458.4+/-41 s); type: functional
[20] = test system: Mus musculus; experiment: Anxiolytic activity in BALB/c mouse assessed as immobility at equimolar oral dose relative to 15 mg/kg nortriptyline after 90 mins by open-field test (RVb= 458.4+/-41 s); type: functional
[21] = test system: Rattus norvegicus; experiment: Antiinflammatory activity against gamma carrageenan-induced paw edema in Wistar rat assessed as reduction in paw volume at 5 mg/kg, po administered 2 hrs before carrageenan challenge measured after 4 hrs relative to control; type: functional, organism-based; set-up: dose 5 mg/kg
[22] = test system: Rattus norvegicus; experiment: Antiinflammatory activity against gamma carrageenan-induced paw edema in Wistar rat assessed as reduction in paw volume at 5 mg/kg, po equimolar dose of nortriptyline administered 2 hrs before carrageenan challenge measured after 4 hrs relative to control; type: functional, organism-based; set-up: dose 5 mg/kg
[23] = test system: Rattus norvegicus; experiment: Antiinflammatory activity against gamma carrageenan-induced paw edema in Wistar rat assessed as reduction in paw volume at 5 mg/kg, po administered 2 hrs before carrageenan challenge measured after 24 hrs relative to control; type: functional, organism-based; set-up: dose 5 mg/kg
[24] = test system: Rattus norvegicus; experiment: Antiinflammatory activity against gamma carrageenan-induced paw edema in Wistar rat assessed as reduction in paw volume at 5 mg/kg, po equimolar dose of nortriptyline administered 2 hrs before carrageenan challenge measured after 24 hrs relative; type: functional, organism-based; set-up: dose 5 mg/kg
[25] = test system: Rattus norvegicus; experiment: Antiinflammatory activity against gamma carrageenan-induced paw edema in Wistar rat assessed as paw volume at 5 mg/kg, po equimolar dose of nortriptyline administered 2 hrs before carrageenan challenge relative to control; type: functional, organism-based; set-up: dose 5 mg/kg
[26] = species on record: Rattus norvegicus; experiment: Displacement of [3H]muscimol from GABAA receptor in rat cerebral cortex; type: tissue-based; conditions: concentration not given here
[27] = species on record: Rattus norvegicus; experiment: Displacement of [3H]GABA from non selective GABA receptor in rat cerebral cortex; type: tissue-based; conditions: concentration not given here
[28] = test system: Mus musculus; experiment: Anxiolytic activity in BALB/c mouse assessed as distance moved at equimolar oral dose relative to 5 mg/kg nortriptyline after 90 mins by open-field test (RVb= 8485+/-610 cm); type: functional
[29] = test system: Mus musculus; experiment: Anxiolytic activity in BALB/c mouse assessed as distance moved at equimolar oral dose relative to 1 mg/kg nortriptyline after 90 mins by open-field test (RVb= 8485+/-610 cm); type: functional
[30] = test system: Mus musculus; experiment: Anxiolytic activity in BALB/c mouse assessed as distance moved at equimolar oral dose relative to 15 mg/kg nortriptyline after 90 mins by open-field test (RVb= 8485+/-610 cm); type: functional
[31] = test system: Mus musculus; experiment: Anxiolytic activity in BALB/c mouse assessed as velocity at equimolar oral dose relative to 5 mg/kg nortriptyline after 90 mins by open-field test (RVb= 7.07+/-0.51 cm/s); type: functional
[32] = test system: Mus musculus; experiment: Anxiolytic activity in BALB/c mouse assessed as velocity at equimolar oral dose relative to 15 mg/kg nortriptyline after 90 mins by open-field test (RVb= 7.07+/-0.51 cm/s); type: functional
[33] = test system: Mus musculus; experiment: Antinociceptive activity in BALB/c mouse assessed as […] at 0.25 mg/kg, po after 240 mins by hot plate method; type: functional, organism-based; set-up: dose 0.25 mg/kg
[34] = test system: Mus musculus; experiment: Antinociceptive activity in BALB/c mouse assessed as […] at 4.5 mg/kg, po after 240 mins by hot plate method; type: functional, organism-based; set-up: dose 4.5 mg/kg
[35] = test system: Mus musculus; experiment: Antinociceptive activity in BALB/c mouse assessed as […] at 0.5 mg/kg, po equimolar dose of nortriptyline after 240 mins by hot plate method; type: functional, organism-based; set-up: dose 0.5 mg/kg
[36] = test system: Mus musculus; experiment: Antinociceptive activity in BALB/c mouse assessed as […] at 0.25 mg/kg, po equimolar dose of nortriptyline after 240 mins by hot plate method; type: functional, organism-based; set-up: dose 0.25 mg/kg
[37] = test system: Mus musculus; experiment: Antinociceptive activity in BALB/c mouse assessed as […] at 4.5 mg/kg, po equimolar dose of nortriptyline after 240 mins by hot plate method; type: functional, organism-based; set-up: dose 4.5 mg/kg
[38] = test system: Mus musculus; experiment: Antinociceptive activity in BALB/c mouse assessed as […] at 10 mg/kg, po after 240 mins by hot plate method; type: functional, organism-based; set-up: dose 10 mg/kg
[39] = test system: Mus musculus; experiment: Antinociceptive activity in BALB/c mouse assessed as paw withdrawal latency at 0.4 mg/kg, po after 2 to 4 hrs by hot plate method; type: functional, organism-based; set-up: dose 0.4 mg/kg
[40] = test system: Mus musculus; experiment: Antinociceptive activity in BALB/c mouse assessed as paw withdrawal latency at 0.4 mg/kg, po equimolar dose of nortriptyline after 2 to 4 hrs by hot plate method; type: functional, organism-based; set-up: dose 0.4 mg/kg
[41] = test system: Mus musculus; experiment: Antinociceptive activity in BALB/c mouse assessed as increase in paw withdrawal latency time at 0.2 mg/kg, po daily for 12 days measured after 3 to 5 hrs on day 1; type: functional, organism-based; set-up: dose 0.2 mg/kg
[42] = test system: Mus musculus; experiment: Antinociceptive activity in BALB/c mouse assessed as increase in paw withdrawal latency time at 0.2 mg/kg, po equimolar dose of nortriptyline daily measured after 3 to 5 hrs on day 1; type: functional, organism-based; set-up: dose 0.2 mg/kg
[43] = test system: Mus musculus; experiment: Antinociceptive activity in BALB/c mouse assessed as increase in paw withdrawal latency time at 0.2 mg/kg, po equimolar dose of nortriptyline daily measured after 3 to 5 hrs on day 3 to 12; type: functional, organism-based; set-up: dose 0.2 mg/kg

NCC1(CC(=O)O)CCCCC1
active: Activity [1] | Activity [2] | Activity [5]
inactive: Activity [3] | Activity [4]

CN(CCC=C1c2ccccc2CCc2ccccc21)C(=O)CCCN.Cl [BL-1021]
active: Activity [7] | Activity [8] | Activity [9] | Activity [10] | Activity [11] | Activity [12] | Activity [13] | Activity [14] | Activity [15] | Activity [16] | Activity [17] | Activity [1] | Activity [25] | Activity [33] | Activity [34] | Activity [35] | Activity [36] | Activity [37] | Activity [38] | Activity [39] | Activity [40] | Activity [41] | Activity [42] | Activity [43]
6.72 cm/s: Activity [6]
6%: inhibition [27]
7413 cm: Activity [30]
6.18 cm/s: Activity [32]
8157 cm: Activity [28]
572.8 s: Activity [20]
6.85 cm/s: Activity [31]
467.9 s: Activity [19]
8053 cm: Activity [29]
447.2 s: Activity [18]
11%: inhibition [26]
inactive: Activity [21] | Activity [22] | Activity [23] | Activity [24]

CNCCC(Oc1ccc(C(F)(F)F)cc1)c1ccccc1 (stereo not given)
active: Activity [38]

CNCCC=C1c2ccccc2CCc2ccccc21
active: Activity [10] | Activity [11] | Activity [12] | Activity [13] | Activity [14] | Activity [15] | Activity [16] | Activity [17] | Activity [1] | Activity [25] | Activity [33] | Activity [34] | Activity [35] | Activity [36] | Activity [37]
